These results are taken from patent US5726186A, “Pentacyclic compounds, intermediates, processes, compositions, and methods” (Eli Lilly and Company, priority 1996, dated 1998).

One assay deals with uterus. In words: Wet uterine weight in ovariectomized rats (post-menopausal model). The class given is in vivo, female Sprague Dawley rats (ovariectomized). The note with it: Rattus norvegicus, 96 h, oral, daily for 4 days, OVX rats, read-out: Uterine Weight (% increase vs. OVX). The method, then: In the examples illustrating the methods, a post-menopausal model was used in which effects of different treatments upon circulating lipids were determined.
(§1) Seventy-five day old female Sprague Dawley rats (weight range of 200 to 225 g) were obtained from Charles River Laboratories (Portage, Mich.). The animals were either bilaterally ovariectomized (OVX) or exposed to a Sham surgical procedure at Charles River Laboratories, and then shipped after one week. Upon arrival, they were housed in metal hanging cages in groups of 3 or 4 per cage and had ad libitum access to food (calcium content approximately 0.5%) and water for one week. Room temperature was maintained at 22.2°±1.7° C. with a minimum relative humidity of 40%. The photoperiod in the room was 12 hours light and 12 hours dark.
(§2) Dosing Regimen Tissue Collection. After a one week acclimation period (therefore, two weeks post-OVX) daily dosing with test compound was initiated. 17a-ethynyl estradiol or the test compound were given orally, unless otherwise stated, as a suspension in 1% carboxymethylcellulose or dissolved in 20% cyclodextrin. Animals were dosed daily for 4 days. Following the dosing regimen, animals were weighed and anesthetized with a ketamine: Xylazine (2:1, V:V) mixture and a blood sample was collected by cardiac puncture. The animals were then sacrificed by asphyxiation with CO2, the uterus was removed through a midline incision, and a wet uterine weight was determined.
(§3) The data presented in the Tables 1 below reflects the response of 5 to 6 rats per treatment.

The subject of assay [1] is Uterine Eosinophil Peroxidase (EPO). In words: Uterine Eosinophil Peroxidase (EPO) Assay. Format: in vivo, female Sprague Dawley rats (ovariectomized). Details: Uterine EPO (V. max): unit not given here. The note with it: oral, daily for 4 days, OVX rats, 450 nm.
Source text: as §1, §2
Uterine Eosinophil Peroxidase (EPO) Assay. Uteri were kept at 4° C. until time of enzymatic analysis. The uteri were then homogenized in 50 volumes of 50 mM Tris buffer (pH-8.0) containing 0.005% Triton X-100. Upon addition of 0.01% hydrogen peroxide and 10 mM O-phenylenediamine (final concentrations) in Tris buffer, increase in absorbance was monitored for one minute at 450 nm. The presence of eosonophils in the uterus is an indication of estrogenic activity of a compound. The maximal velocity of a 15 second interval was determined over the initial, linear portion of the reaction curve.
As is expressed in the below data, estrogenicity also was assessed by evaluating the adverse response of eosinophil infiltration into the uterus.
as §3

Another assay has as its system Serum Cholesterol. Briefly: Serum cholesterol analysis in ovariectomized rats. The class given is in vivo, female Sprague Dawley rats (ovariectomized). The note with it: Rattus norvegicus, 96 h, oral, daily for 4 days, OVX rats, read-out: Serum Cholesterol (% decrease vs. OVX).
Source text: as §1, §2
Cholesterol Analysis. Blood samples were allowed to clot at room temperature for 2 hours, and serum was obtained following centrifugation for 10 minutes at 3000 rpm. Serum cholesterol was determined using a Boehringer Mannheim Diagnostics high performance cholesterol assay. Briefly the cholesterol was oxidized to cholest-4-en-3-one and hydrogen peroxide. The hydrogen peroxide was then reacted with phenol and 4-aminophenazone in the presence of peroxidase to produce a p-quinone imine dye, which was read spectrophotemetrically at 500 nm. Cholesterol concentration was then calculated against a standard curve. The entire assay was automated using a Biomek Automated Workstation.
as §3

Assay [2] concerns MCF-7 breast adenocarcinoma cells. Briefly: MCF-7 Proliferation Assay (tritiated thymidine). The class given is cell-based. The note with it: Homo sapiens, MCF7; MCF-7 cells, 48 hours, tritiated thymidine pulse 4 hours. The method, then: MCF-7 breast adenocarcinoma cells (ATCC HTB 22) were maintained in MEM (minimal essential medium, phenol red-free, Sigma, St. Louis, Mo.) supplimented with 10% fetal bovine serum […] (V/V), L-glutamine (2 mM), sodium pyruvate (1 mM), HEPES {(N-[2-hydroxyethyl]piperazine-N'-[2-ethanesulfonic acid]10 mM)}, non-essential amino acids and bovine insulin (1 ug/mL) (maintenance medium). Ten days prior to assay, MCF-7 cells were switched to maintenance medium supplemented with 10% dextran coated charcoal stripped fetal bovine serum (DCC-FBS) assay medium) in place of 10% FBS to deplete internal stores of steroids. MCF-7 cells were removed from maintenance flasks using cell dissociation medium (Ca++/Mg++ free HBSS (phenol red-free) supplemented with 10 mM HEPES and 2 mM EDTA). Cells were washed twice with assay medium and adjusted to 80,000 cells/mL. Approximately […] (8,000 cells) were added to flat-bottom microculture wells (Costar 3596) and incubated at 37° C. in a 5% CO2 humidified incubator for 48 hours to allow for cell adherence and equilibration after transfer. Serial dilutions of drugs or DMSO as a diluent control were prepared in assay medium and […] to triplicate microcultures followed by […] assay medium for a final volume of […]. After an additional 48 hours at 37° C. in a 5% CO2 humidified incubator, microcultures were pulsed with tritiated thymidine (1 uCi/well) for 4 hours. Cultures were terminated by freezing at -70° C. for 24 hours followed by thawing and harvesting of microcultures using a Skatron Semiautomatic Cell Harvester. Samples were counted by liquid scintillation using a Wallac BetaPlace b counter. Results in Table 3 below show the IC50 for certain compounds of the present invention.

For the compound `Oc1ccc2c(c1)CN(c1ccc(OCCN3CCCCC3)cc1)c1c-2ccc2cc(O)ccc12` [Example 14, 2,8-Dihydroxy-5-[4-[2-(1-piperidinyl)ethoxy]phenyl]-6H-benzo[c]phenanthridine], the change in vivo at 0.01 mg/kg in the assay with uterus (0.01 mg/kg) is -0.6%. Besides, in the assay on uterus, the change in vivo at 0.1 mg/kg turned out to be 60%. Moreover, the change in vivo at 1 mg/kg in the assay on uterus worked out at 49.1%. Further, the “Uterine EPO (V. max)” value in assay [1] (0.01 mg/kg) is given as 2.7; in assay [1] (0.1 mg/kg), 5.4; in assay [1] (1.0 mg/kg) it was 36.0. For the same compound, the inhibition in vivo at 0.01 mg/kg in the assay on Serum Cholesterol (0.01 mg/kg) was 24.8%. Also, the inhibition in vivo at 0.1 mg/kg with Serum Cholesterol worked out at 59.5%. Also, the inhibition in vivo at 1 mg/kg with Serum Cholesterol worked out at 60.7%. In addition, in assay [2], the 50% inhibitory concentration (IC50) turned out to be 1 nM.

As to `O=C(Oc1ccc2c(c1)OC(c1ccc(OCCN3CCCCC3)cc1)c1c-2sc2cc(OC(=O)c3ccccc3)ccc12)c1ccccc1` (centres unmarked) [Example 3, 3,9-Bis(benzoyloxy)-6-[4-[2-(1-piperidinyl)ethoxy]phenyl]-6-H-[1]benzothieno[3,2-c][1]benzopyran], in the assay on uterus, the change in vivo at 0.1 mg/kg turned out to be 32.5% and the change in vivo at 1 mg/kg was 7.4%. In assay [1] (0.1 mg/kg), the “Uterine EPO (V. max)” value is given as 4.2. The “Uterine EPO (V. max)” value in assay [1] (1.0 mg/kg) is 3.0. Also, in the assay with Serum Cholesterol, the inhibition in vivo at 0.1 mg/kg amounted to 51.5% and the inhibition in vivo at 1 mg/kg stood at 50.8%. Also, in assay [2], half-maximal inhibition (IC50) required 3 nM.

For the compound `Oc1ccc2c(c1)OC(c1ccc(OCCN3CCCCC3)cc1)c1c-2oc2cc(O)ccc12` (centres unmarked) [Example 11, 3,9-Dihydroxy-6-[4-[2-(1-piperidinyl)ethoxy]phenyl]-6-H-benzofuro[3,2-c][1]benzopyran], in the assay on uterus, the change in vivo at 0.1 mg/kg is -8.8% and the change in vivo at 1 mg/kg is 3%. In the assay with uterus (10.0 mg/kg), the change in vivo at 10 mg/kg is -12.6%. Moreover, the “Uterine EPO (V. max)” value in assay [1] (0.1 mg/kg) turned out to be 2.7. Also, the “Uterine EPO (V. max)” value in assay [1] (1.0 mg/kg) was found to be 4.2. Also, in assay [1] (10.0 mg/kg), the “Uterine EPO (V. max)” value worked out at 4.2. For the same compound, in the assay on Serum Cholesterol, the inhibition in vivo at 0.1 mg/kg was determined as 17.4% and the inhibition in vivo at 1 mg/kg was 30.9%. Further, the inhibition in vivo at 10 mg/kg in the assay with Serum Cholesterol (10.0 mg/kg) was determined as 36.3%. In addition, it took 0.7 nM to reach half-maximal inhibition in assay [2] (IC50).

For the compound `CCCCS(=O)(=O)Oc1ccc2c(c1)OC(c1ccc(OCCN3CCCCC3)cc1)c1c-2sc2cc(OS(=O)(=O)CCCC)ccc12` (centres unmarked) [Example 5, 3,9-Bis(1-butylsulfonyloxy)-6-[4-[2-(1-piperidinyl)ethoxy]phenyl]-6-H-[1]benzothieno[3,2-c][1]benzopyran], in the assay with uterus, the change in vivo at 0.1 mg/kg is -5.1% and the change in vivo at 1 mg/kg turned out to be 18.6%. Moreover, the “Uterine EPO (V. max)” value in assay [1] (0.1 mg/kg) was 4.5. For the same compound, in assay [1] (1.0 mg/kg), the “Uterine EPO (V. max)” value is on record as 4.8. Also, in the assay on Serum Cholesterol, the inhibition in vivo at 0.1 mg/kg is -9% and the inhibition in vivo at 1 mg/kg was 61.3%. The compound further showed a half-inhibitory concentration (IC50) in assay [2] of 1000 nM.

Take `CC(C)(C)C(=O)Oc1ccc2c(c1)OC(c1ccc(OCCN3CCCCC3)cc1)c1c-2sc2cc(OC(=O)C(C)(C)C)ccc12` (centres unmarked) [Example 4, 3,9-Bis(pivaloyloxy)-6-[4-[2-(1-piperidinyl)ethoxy]phenyl]-6-H-[1]benzothieno[3,2-c][1]benzopyran]: in the assay on uterus, the change in vivo at 0.1 mg/kg came to 10% and the change in vivo at 1 mg/kg turned out to be 15.3%. For the same compound, in assay [1] (0.1 mg/kg), the “Uterine EPO (V. max)” value came to 3.3. In addition, in assay [1] (1.0 mg/kg), the “Uterine EPO (V. max)” value worked out at 3.3. For the same compound, in the assay on Serum Cholesterol, the inhibition in vivo at 0.1 mg/kg came out at 62.6% and the inhibition in vivo at 1 mg/kg was found to be 48.2%. The compound also came in with an IC50 in assay [2] of 5 nM.

A word on the IC50: it is the concentration needed to halve the response being measured.
